From PubChem BioAssay (NCI)
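Results reflect a 48-hour exposure of cells in 96-well plates to compound at five concentrations. GI50 is the concentration that inhibits growth by half. TGI is the concentration that stops growth completely.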

Legend:
Assay in all cases: inhibition of tumour cell growth, NCI panel, 48 h
NCI-H226 lung = system: NCI-H226 lung
NCI-H23 lung = system: NCI-H23 lung
NCI-H460 lung = system: NCI-H460 lung
NCI-H522 lung = system: NCI-H522 lung
NCI/ADR-RES ovarian = system: NCI/ADR-RES ovarian
OVCAR-3 ovarian = system: OVCAR-3 ovarian
OVCAR-4 ovarian = system: OVCAR-4 ovarian
OVCAR-5 ovarian = system: OVCAR-5 ovarian
OVCAR-8 ovarian = system: OVCAR-8 ovarian
PC-3 prostate = system: PC-3 prostate
RPMI-8226 leukemia = system: RPMI-8226 leukemia
RXF 393 renal = system: RXF 393 renal
SF-268 CNS = system: SF-268 CNS
SF-295 CNS = system: SF-295 CNS
SF-539 CNS = system: SF-539 CNS
SK-MEL-2 melanoma = system: SK-MEL-2 melanoma
SK-MEL-28 melanoma = system: SK-MEL-28 melanoma
SK-MEL-5 melanoma = system: SK-MEL-5 melanoma
SK-OV-3 ovarian = system: SK-OV-3 ovarian
SN12C renal = system: SN12C renal
SNB-19 CNS = system: SNB-19 CNS
SNB-75 CNS = system: SNB-75 CNS
SW-620 colon = system: SW-620 colon
T-47D breast = system: T-47D breast
TK-10 renal = system: TK-10 renal
U251 CNS = system: U251 CNS
UACC-257 melanoma = system: UACC-257 melanoma
UACC-62 melanoma = system: UACC-62 melanoma
UO-31 renal = system: UO-31 renal

With `Cc1ccccc1[C@H]1C(C(=O)c2ccc(Cl)cc2)C2(N[C@@H]1c1ccccc1)C(=O)Nc1ccc(Cl)cc12` (stereo partly drawn) the GI50 (NCI-H226 lung) was 5.47 µM, the TGI (NCI-H226 lung) was 11.2 µM and the GI50 (NCI-H23 lung) was 5.54 µM. The TGI (NCI-H23 lung) was 11.1 µM, the GI50 (NCI-H460 lung) was 7.5 µM and the TGI (NCI-H460 lung) was 19.5 µM. The GI50 (NCI-H522 lung) was 5.52 µM, the TGI (NCI-H522 lung) was 10.8 µM and the GI50 (NCI/ADR-RES ovarian) was 5.64 µM. The TGI (NCI/ADR-RES ovarian) was 11.4 µM, the GI50 (OVCAR-3 ovarian) was 3.68 µM and the TGI (OVCAR-3 ovarian) was 9.82 µM. It also gave a GI50 (OVCAR-4 ovarian) of 5.74 µM, a TGI (OVCAR-4 ovarian) of 13.7 µM and a GI50 (OVCAR-5 ovarian) of 5.39 µM. For the same compound, the TGI (OVCAR-5 ovarian) was 10.6 µM, the GI50 (OVCAR-8 ovarian) was 6.41 µM and the TGI (OVCAR-8 ovarian) was 14.5 µM. It also gave a GI50 (PC-3 prostate) of 4.02 µM, a TGI (PC-3 prostate) of 10.6 µM and a GI50 (RPMI-8226 leukemia) of 8.18 µM. For the same compound, the TGI (RPMI-8226 leukemia) was 30.2 µM, the GI50 (RXF 393 renal) was 1.89 µM and the TGI (RXF 393 renal) was 7.25 µM. The GI50 (SF-268 CNS) was 4.74 µM, the TGI (SF-268 CNS) was 12.1 µM and the GI50 (SF-295 CNS) was 5.21 µM. The TGI (SF-295 CNS) was 10.2 µM, the GI50 (SF-539 CNS) was 6.2 µM and the TGI (SF-539 CNS) was 11.7 µM. For the same compound, the GI50 (SK-MEL-2 melanoma) was 5.31 µM, the TGI (SK-MEL-2 melanoma) was 10.5 µM and the GI50 (SK-MEL-28 melanoma) was 6.26 µM. For the same compound, the TGI (SK-MEL-28 melanoma) was 11.8 µM, the GI50 (SK-MEL-5 melanoma) was 6.09 µM and the TGI (SK-MEL-5 melanoma) was 11.7 µM. It also gave a GI50 (SK-OV-3 ovarian) of 5.88 µM, a TGI (SK-OV-3 ovarian) of 12.2 µM and a GI50 (SN12C renal) of 4.96 µM. The TGI (SN12C renal) was 9.93 µM, the GI50 (SNB-19 CNS) was 6.07 µM and the TGI (SNB-19 CNS) was 11.6 µM. It also gave a GI50 (SNB-75 CNS) of 4.37 µM, a TGI (SNB-75 CNS) of 12.6 µM and a GI50 (SW-620 colon) of 6.97 µM. The TGI (SW-620 colon) was 20 µM, the GI50 (T-47D breast) was 3.66 µM and the TGI (T-47D breast) was 8.83 µM. It also gave a GI50 (TK-10 renal) of 5.3 µM, a TGI (TK-10 renal) of 10.6 µM and a GI50 (U251 CNS) of 5.85 µM. The TGI (U251 CNS) was 11.7 µM, the GI50 (UACC-257 melanoma) was 5.82 µM and the TGI (UACC-257 melanoma) was 11.6 µM. For the same compound, the GI50 (UACC-62 melanoma) was 4.6 µM, the TGI (UACC-62 melanoma) was 9.56 µM and the GI50 (UO-31 renal) was 4.48 µM. For the same compound, the TGI (UO-31 renal) was 9.28 µM.
